Assay results reported in patent publication US7842683B2, “Neurotherapeutic compositions and method” (Revaax Pharmaceuticals, LLC, priority 1999, dated 2010).
Where “and” joins values, the source holds several entries; their conditions need not be identical. Equal values may be shown once.

Assays:
male hamsters = assay: Novelty test, stress-induced release of cortisol; type: in vivo; details: 10 μg/kg IP
Method: The simple procedure of placing an adult male hamster into a novel environment for 5 min causes a significant, predictable increase in blood levels of cortisol (Weinberg and Wong 1986). This novelty test was used to assess the effects of CLAV on stress-induced release of cortisol. Two groups of male hamsters were treated IP with either CLAV (10 μg/kg, n=6), or saline vehicle (n=4). A third group (n=4) received no treatment or isolation stress and served as a control for basal levels of cortisol. Sixty min after treatment animals were taken from their home cage and placed into a novel cage for 5 min. Afterwards animals were sacrificed by decapitation and trunk blood collected for radioimmunoassay of cortisol. All animals were tested under reverse light:dark conditions four hrs into the dark cycle. Data were compared with a one-way ANOVA followed by Fisher PLSD post hoc tests.

[1] = test system: gram negative beta-lactamase enzymes; details: cited from earlier work
vasopressin V1A receptor = assay: Membrane binding assay, competition for I125 HO-LVA; details: 1 μM, hamster liver membrane preparation
Description: Vasopressin and serotonin are both critical neurotransmitters in the control of offensive aggression in male hamsters (Ferris et al., 1998). These two neurotransmitters also are implicated in the control of human aggression (Coccaro et al., 1998). Vasopressin facilitates aggressive behavior while serotonin inhibits aggression, in part, by inhibiting the activity of the vasopressin system. Blockade of vasopressin V1A receptors and stimulation of serotonin 5HT1A receptors in the anterior hypothalamus blocks offensive aggression (Ferris et al., 1999). […] To test this notion Mox was tested in a membrane binding assay for competition for the V1A receptor (Ferris et al., 1994) and in a receptor autoradiography assay for competition for the 5HT1A receptors (Ferris et al., 1999).

hamsters = assay: Motor activity in an open field (hamsters); type: in vivo, Syrian golden hamsters (Mesocricetus auratus); details: 50 μg/kg, 90 min after injection
Method: Six animals were tested for general motor activity in an “open field” following treatment with saline vehicle or 50 μg/kg Mox (FIG. 5). The study was counter balanced with each animal receiving each treatment. Ninety minutes after injection a single animal was placed into a large clean Plexiglas cage (48×32×40 cm) devoid of any bedding. This open field was delineated into equal quadrants by tape on the underside of the cage. Animals were scored for motor activity by counting the number of quadrants traversed in 1 min.

[2] = test system: adolescent male rhesus macaques; assay: Social behavior in non-human primates; type: in vivo; details: 1 mg/kg IM
Method: Eight, two year old adolescent male rhesus macaques were tested with Mox. Animals were raised with their mothers in a group setting at a field station. At one year of age, they were transferred to individual cages. Each day thereafter, they were paired housed for two-three hrs. The adolescent partners were always the same. […] The display of social behaviors in this arrangement are very robust because of the limited amount of time the monkeys spend together. During the experiment the monkeys were paired in the “play-cage” where they were video taped for one hour. The study was designed so that behavioral data were obtained for each monkey under Mox and vehicle treatment. The treatment was an ABA type schedule of administration: Day 1—one member of each pair received 0.9% NaCl vehicle, Day 2—drug, Day 3—vehicle. Only one member of a pair was injected on a test day. The other member of a pair was injected a week later according to the same ABA schedule. […] Animals were video taped sixty minutes after injection for a one hr observation period. Animals were scored for over forty different behaviors (Winslow et al., 1988). Only twenty-eight are listed on TABLE I. The unreported behaviors, e.g., self-bites, vocalizations, clinging, mounts, escapes, self grooming were so infrequent that they were omitted from the analysis. Paired t-test was run for each behavioral measure.

[3] = cited from earlier work

SMILES	effect on the release of cortisol in response to mild stress (male hamsters)	blood level of cortisol vs untreated, non-stressed control (male hamsters; sixty min, 5 min novel cage)	binding affinity for the beta-lactamases [1]	concentration range inhibiting gram negative beta-lactamase enzymes [1] [nM]	displacement of I125 HO-LVA binding (vasopressin V1A receptor)	open field activity (quadrants traversed in 1 min) (hamsters)	allogrooming [2]	duration of play fighting ([2]; sixty minutes after injection, one hr observation)	accumulation with multiple injections ([3]; 8-12 hr intervals)	elimination half-life ([3]; IM injection) [h]	time of peak plasma concentrations ([3]; after IM injection)	CSF concentration as a percentage of serum concentration ([3]; human, in vivo)
O=C(O)[C@H]1/C(=C/CO)O[C@@H]2CC(=O)N21 [CLAV, Clavulanic acid]	no ostensible effect	more than twice	very high	15 to 34								
CO[C@@]1(NC(=O)C(C(=O)O)c2ccc(O)cc2)C(=O)N2C(C(=O)O)=C(CSc3nnnn3C)CO[C@@H]21 (stereo partly drawn) [Mox, 7-β-[2-carboxy-2-(4-hydroxyphenyl)acetamido]-7α-methoxy-3-[[(1-methyl-1H-tetrazol-5-yl)thio]methyl]-1-oxa-1-dethia-3-cephem-4-carboxylic acid]					did not significantly displace	no significant difference	no effect	significantly reduced	no accumulation	2.3	one	20% and 15-20%
